Experiments:
CD19+ B cells = assay: Cell viability during plasmablast differentiation (live cell count); assay type: cell-based, human; settings: for percentage of total viable cells: after 4 days
From the text: To determine live cell count, B cells (see section 8.2.3) were stained with 0.4% trypan blue and live cells counted using the Countess automated cell counter (Invitrogen) in duplicate samples.

CD83 = CD83 expression in B cell differentiation culture (flow cytometry); assay type: cell-based, human
Method: (§1) Immunophenotyping For Flow Cytometric Analysis: Cells were stained using multicolor direct immunofluorescence stain for flow cytometric analysis. Surface staining was performed before cell fixation and permeabilization. Cells (50 μl; 1×10^6 cells/ml in washing buffer, 2% FBS with 0.1% NaN3 in PBS) were used for each staining. The cells were stained with isotype control mAb ([…]) and multicolor FITC-conjugated anti-CD20 mAb and PE-conjugated anti-CD38 mAb, or PerCP-Cy5.5 conjugated anti-CD44 mAb, PE-conjugated anti-CD83 mAb were used for day 4 activated B cells (CD20+CD38-cells), and day 4 PBs and day 7 PBs (CD20-CD38+), and other staining, analyzed by flow cytometry as per manufacturer's instructions. The intracellular staining of transcription factor proteins (BCL-6, IRF-4, BLIMP-1, PAX-5 and XBP-1) and IgJ was performed according to the manufacturer's recommendations. Flow cytometric analysis was performed with a FACSCanto using FACSDiva 6 (BD Biosciences). For data analysis, Flowjo (Tree Star) software was used.
Using the same B cells in vitro differentiation system, the activity of the test compound on CD44 and CD83 expression in B cell differentiation was further investigated. Multicolor FITC-conjugated anti-CD20 mAb, PerCP Cy5.5-conjugated anti-CD44 mAb and PE-conjugated anti-CD83 mAb are used for day 4 and day 7 cells. The effect of the test compound was evaluated from 3 separate experiments representative of 3 donors.

IgJ = assay: Ig J chain intracellular staining in B cell differentiation culture; assay type: cell-based, human
Method: as §1
High level IgJ chain expression in rheumatoid arthritis (RA) patients predicts lack of response to rituximab.

BLIMP-1, XBP-1, and IgJ = assay: Plasmablast lineage factor gene expression (qRT-PCR), SLE patient PBMC; assay type: cell-based, human; settings: 20 nM, n=3
NZBWF1/J mouse = NZBWF1/J mouse model of systemic lupus erythematosus; assay type: in vivo; settings: 30 mg/kg; week 4
DBA/2 mice = assay: Bleomycin-induced dermal fibrosis mouse model (regression of established fibrosis); assay type: in vivo; settings: 30 mg/kg, PO, QD
Method: DBA/2 mice were used in this study. Eight animals were used per treatment group in the study. Mice were kept in the animal house under standard conditions with food and water ad libidum.
The compound was suspended, not dissolved, in this vehicle. The formulation was homogenized with a Teflon pestle and mortar (Potter-Elvehjem tissue grinder) using a motorized Eberbach tissue homogenizer. The daily drug stock concentration used in these studies was 3 mg/ml.
Bleomycin was obtained from the pharmacy of the University of Erlangen-Nuremberg and freshly prepared once a week. Skin fibrosis was induced in 6-week-old DBA mice by local intracutaneous injections of 100 μl of bleomycin dissolved in 0.9% NaCl, at a concentration of 0.5 mg/ml, every other day in defined areas of 1.5 cm^2 on the upper back.
To evaluate regression of fibrosis, a modified model of bleomycin induced dermal fibrosis was used. Mice were pre-challenged with bleomycin to induce a robust skin fibrosis. One group received treatment with the test compound, while challenge with bleomycin was ongoing for additional three weeks. The outcome of this group was compared to mice challenged with bleomycin for six weeks (prevention of further progression) and to mice challenged with bleomycin for three weeks followed by NaCl for additional three weeks (induction of regression). The following groups were used in the regression study: • Control group: Intradermal injection of NaCl for six weeks. Control treatment consisted of administration of the vehicle. • Untreated bleomycin group 1 (regression): Intradermal injection of bleomycin for three weeks followed by intradermal injections of NaCl for another three weeks. Treatment consisted of administration of the vehicle. […]
Dermal thickness was determined by staining with hematoxylin and eosin and activated fibroblasts by using immunohistochemistry for alpha smooth muscle actin (α-SMA). The dermal thickness, as determined by the modified Rodnan Skin Score, is currently the most common primary outcome in human clinical trials for anti-fibrotic agents in SSc. […] Dermal thickness was analyzed with a Nikon Eclipse 80i microscope (Nikon, Badhoevedorp, The Netherlands) by measuring the maximal distance between the epidermal-dermal junction and the dermal-subcutaneous fat junction at 4 different skin sections in each mouse. […]
For quantification of myofibroblasts, skin sections were deparaffinized and incubated with 5% bovine serum albumin for 60 minutes. Cells positive for α-SMA were detected by incubation with monoclonal anti-α-SMA antibodies (clone 1A4; Sigma-Aldrich, Steinheim, Germany) for 2 hours at room temperature followed by incubation with 3% hydrogen peroxide for 10 minutes. […]

Tsk-1 mouse = assay: Tight skin-1 (Tsk-1) mouse model: hypodermal thickness and hydroxyproline; assay type: in vivo; settings: 30 mg/kg
From the text: First, the inhibitory effects of the compound on fibrosis in the Tsk-1 tight skin mouse model were also investigated.

[1] = test system: CTGF, PAI-1, COL1A1, TGFB1; assay: Tsk-1 mouse skin TGF-β pathway gene overexpression (qRT-PCR); assay type: in vivo; settings: 30 mg/kg
From the text: Next, to examine the effect of the compound on the overexpression of TGF-β pathway genes in Tsk-1 mouse skin, qRT-PCR was used to measure mRNA levels for six genes: CTGF, PAI-1, COL1A1, α-smooth muscle actin (ALPHA SMA), cartilage oligomeric protein 1 (COMP), and TGFB1. Overexpression was defined as the excess mRNA levels observed in Tsk-1 mouse skin compared to normal pa/pa mouse skin. […] PAI-1 and TGFB1 gene overexpression was not inhibited by the compound.

H929 cells = assay: H929 cell cycle (S-phase) and survivin, pRB, p27 expression; assay type: cell-based
[2] = Tsk-1 vs pa/pa mouse skin mRNA, p≤0.001

Q: `O=C1CC[C@H](N2Cc3c(OCc4ccc(CN5CCOCC5)cc4)cccc3C2=O)C(=O)N1` [Test compound, (S)-3-[4-(4-morphlin-4-ylmethylbenzyloxy)-1-oxo-1,3-dihydro-isoindo-2-yl]piperidine-2,6-dione] was tested. Which “percentage of total viable cells” value (CD19+ B cells; 20 nM) did it give?
A: 69.6 % of control

Q: What about the “percentage of total viable cells” value (CD19+ B cells; 200 nM) of the same molecule?
A: 35.8 % of control

Q: What about the B cell viability (CD19+ B cells; first 4 days of culture) of the same molecule?
A: reduced

Q: What about the “total CD83+ cell population” value (CD83) of the same molecule?
A: significantly increased

Q: And the “percentage of CD83+ cells” value (CD83; Day 4, 2 nM, DMSO 13.4%±2.4%)?
A: 24.1%

Q: And the “percentage of CD83+ cells” value (CD83; Day 4, 20 nM, DMSO 13.4%±2.4%)?
A: 40.2%

Q: And the “percentage of CD83+ cells” value (CD83; Day 4, 200 nM, DMSO 13.4%±2.4%)?
A: 49.5%

Q: What about the “percentage of CD83+ cells” value (CD83; Day 7, 2 nM, DMSO […]±3.3) of the same molecule?
A: 16.3%

Q: And the “percentage of CD83+ cells” value (CD83; Day 7, 20 nM, DMSO […]±3.3)?
A: 36.1%

Q: And the “percentage of CD83+ cells” value (CD83; Day 7, 200 nM, DMSO […]±3.3)?
A: 51.9%

Q: And the “MFI of IgJ within the positive cells” value (IgJ)?
A: decreased

Q: What about the “number of IgJ-positive cells” value (IgJ; Day 4, 20 nM, DMSO 13.1%±1.5%) of the same molecule?
A: 8.4%

Q: What about the “number of IgJ-positive cells” value (IgJ; Day 4, 200 nM, DMSO 13.1%±1.5%) of the same molecule?
A: 5.4%

Q: And the “Ig J chain expression” value (IgJ; Day 4 B cell differentiation cultures, three donors)?
A: dose-dependently and significantly reduced

Q: And the “number of IgJ-positive cells” value (IgJ; Day 7, 20 nM, DMSO 14.4%±4.3)?
A: 13.2%

Q: What about the “number of IgJ-positive cells” value (IgJ; Day 7, 200 nM, DMSO 14.4%±4.3) of the same molecule?
A: 7.2%

Q: And the BLIMP-1 gene expression (BLIMP-1, XBP-1, and IgJ)?
A: 52.8 % of control

Q: And the IgJ gene expression (BLIMP-1, XBP-1, and IgJ)?
A: 13.6 % of control

Q: And the XBP-1 gene expression (BLIMP-1, XBP-1, and IgJ)?
A: 49.2 % of control

Q: And the “anti-double stranded DNA autoantibody level, increase” value (NZBWF1/J mouse)?
A: 86%

Q: And the “peripheral blood B cells, decrease” value (NZBWF1/J mouse)?
A: 25%

Q: What about the “splenic B cells” value (NZBWF1/J mouse) of the same molecule?
A: no change

Q: And the dermal thickening (DBA/2 mice)?
A: no effect

Q: What about the numbers of myofibroblasts (DBA/2 mice) of the same molecule?
A: did not have an effect

Q: And the “reduction of collagen content of the skin (hydroxyproline levels)” value (Tsk-1 mouse)?
A: 38%

Q: And the “reduction of hypodermal thickening” value (Tsk-1 mouse; p≤0.001)?
A: 45%

Q: And the PAI-1 gene overexpression [1]?
A: not inhibited

Q: What about the TGFB1 gene overexpression [1] of the same molecule?
A: not inhibited

Q: And the “reduction of overexpression of COL1A1” value [1, 2]?
A: 129%

Q: What about the “reduction of overexpression of CTGF” value [1, 2] of the same molecule?
A: 79%

Q: What about the “decrease in cell cycle (S-phase)” value (H929 cells; 24 hours of treatment) of the same molecule?
A: 50%

Q: What about the “expression of cyclin-dependent kinase inhibitor p27” value (H929 cells; 48 hours) of the same molecule?
A: increased expression

Q: What about the “expression of retinoblastoma protein (pRB)” value (H929 cells; 48 hours) of the same molecule?
A: decreased expression

Q: And the expression of survivin (H929 cells; 48 hours)?
A: decreased expression
